The source of these data is patent publication US20230159527A1, “COMPOUNDS AS BCL-2 INHIBITORS” (Fochon Pharmaceuticals, Ltd., priority 2020, published 2023).

Common to all, as to format: cell-based
One assay relates to RS4;11-BCL-2 G101V cells. Nature of the assay: Cell proliferation assay, engineered RS4;11 cells stably overexpressing BCL-2 G101V (MTS, 168 h). Conditions: read-out: RS4, 11 BCL2- G101V. An outline of the steps: (§1)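 Proliferation read-out: MTS for exactly 2 h, then absorbance at 490 nm, with IC50 derived from the fit. Before this, engineered RS4;11 lines (BCL-2 G101V, F104L; 5000 cells/well) were exposed 168 h at 37 °C to serially diluted compound, final 1.4–10000 nM.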

The next assay relates to Toledo cells. The assay can be described thus: Cell proliferation assay, Toledo cells (MTS, 72 h). Conditions: Toledo cells, MTS, read-out: Toledo IC50. An outline of the steps:
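Toledo cells (30000/well, RPMI-1640 with 10% FBS) were preincubated for 4 h. They were then exposed to nine compound concentrations from 10000 to 1.5 nM for 72 h at 37 °C, 5% CO2. MTS was added for 2 h and absorbance read at 490 nm to give IC50.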

Another assay relates to RS4;11-BCL-2 F104L cells. The assay can be described thus: Cell proliferation assay, engineered RS4;11 cells stably overexpressing BCL-2 F104L (MTS, 168 h). Conditions: read-out: RS4, 11 BCL2-F104L. An outline of the steps:
as §1

Where two headings read alike, the source gives them in different places.

Turning to “2-((3-fluoro-6-methoxy-1H-pyrrolo [2,3-b]pyridin-5-yl)oxy)-N-(((S)- 3-((1r,4S)-4-hydroxy-4- methylcyclohexyl)- 5-nitro-3,4-dihydro- 2H-benzo[b][1,4]oxazin-7-yl) sulfonyl)-4-(2-((1S,2S or 1R,2R)- 2-(2-isopropylphenyl) cyclopentyl)-2,7-diazaspiro[3.5] nonan-7-yl)benzamide [Example D-102]”, the IC50 in the assay on RS4;11-BCL-2 G101V cells came out at 16 nM; with Toledo cells, 1 nM; in the assay with RS4;11-BCL-2 F104L cells, 1 nM.

As for `CC(C)c1ccccc1[C@@H]1CCC[C@@H]1N1CC2(CCN(c3ccc(C(=O)NS(=O)(=O)c4ccc(NC[C@H]5CC[C@](C)(O)CC5)c([N+](=O)[O-])c4)c(Oc4cc5c(F)c[nH]c5nc4Cl)c3)CC2)C1` (single isomer, unassigned) [Example D-113, 2-((6-chloro-3-fluoro-1H-pyrrolo [2,3-b]pyridin-5-yl)oxy)-N-((4-((((1r,4r)-4-hydroxy-4-methylcyclohexyl)methyl)amino)-3-nitrophenyl)sulfonyl)-4-(2-((1S,2S or 1R,2R)-2-(2-isopropylphenyl)cyclopentyl)-2,7-diazaspiro[3.5]nonan-7-yl)benzamide], the IC50 is 19 nM with RS4;11-BCL-2 G101V cells (Homo sapiens, RS4-11, 168 h); 1 nM with Toledo cells (Homo sapiens); 1 nM in the assay on RS4;11-BCL-2 F104L cells (Homo sapiens).

On to `CC(C)c1ccccc1[C@@H]1CCC[C@@H]1N1CC2(CCN(c3ccc(C(=O)NS(=O)(=O)c4ccc(NC[C@H]5CC[C@](C)(O)CC5)c([N+](=O)[O-])c4)c(Oc4cc5c(F)c[nH]c5nc4F)c3)CC2)C1` (single isomer, unassigned) [Example D-90, 2-((3,6-difluoro-1H-pyrrolo[2,3-b]pyridin-5-yl)oxy)-N-((4-((1r,4r)-4-hydroxy-4-methylcyclohexyl)methyl)amino)-3-nitrophenyl) sulfonyl)-4-(2-((1S,2S or 1R,2R)-2-(2-isopropylphenyl) cyclopentyl)-2,7-diazaspiro[3.5] nonan-7-yl)benzamide], for which the IC50 came to 5 nM in the assay with RS4;11-BCL-2 G101V cells (Homo sapiens, RS4-11, 168 h); 1 nM in the assay on Toledo cells (Homo sapiens); 1 nM in the assay on RS4;11-BCL-2 F104L cells (Homo sapiens).

On to `CC(C)c1ccccc1[C@@H]1CCC[C@@H]1N1CC2(CCN(c3ccc(C(=O)NS(=O)(=O)c4ccc(NC[C@H]5CC[C@](C)(O)CC5)c([N+](=O)[O-])c4)c(Oc4cnc5[nH]cc(F)c5c4)c3)CC2)C1` (single isomer, unassigned) [Example D-34b, 2-((3-fluoro-1H-pyrrolo[2,3-b]pyridin-5-yl)oxy)-N-((4-((((1r,4r)-4-hydroxy-4-methylcyclohexyl)methyl)amino)-3-nitrophenyl)sulfonyl)-4-(2-((1S,2S or 1R,2R)-2-(2-isopropylphenyl)cyclopentyl)-2,7-diazaspiro[3.5]nonan-7-yl)benzamide], for which the IC50 in the assay on RS4;11-BCL-2 G101V cells was 7 nM; in the assay on Toledo cells it was 1 nM; in the assay on RS4;11-BCL-2 F104L cells (Homo sapiens) it was 1 nM.

Take `COCCOc1nc2[nH]cc(F)c2cc1Oc1cc(N2CCC3(CC2)CC(N2CCC[C@H]2c2ccccc2C(C)C)C3)ccc1C(=O)NS(=O)(=O)c1cc2c(c([N+](=O)[O-])c1)N[C@@H]([C@H]1CC[C@](C)(O)CC1)CO2` (single isomer, unassigned) [Example D-71, 2-((3-fluoro-6-(2-methoxyethoxy)-1H-pyrrolo[2,3-b]pyridin-5-yl)oxy)-N-(((S)-3-((1r,4S)-4-hydroxy-4-methylcyclohexyl)-5-nitro-3,4-dihydro-2H-benzo[b][1,4]oxazin-7-yl)sulfonyl)-4-(2-((R or S)-2-(2-isopropylphenyl)pyrrolidin-1-yl)-7-azaspiro[3.5]nonan-7-yl)benzamide]: the IC50 in the assay with RS4;11-BCL-2 G101V cells (Homo sapiens, RS4-11, 168 h) was 13 nM; in the assay on Toledo cells (Homo sapiens), 1 nM; in the assay with RS4;11-BCL-2 F104L cells (Homo sapiens), 12 nM.

Regarding `COCCOc1nc2[nH]ccc2cc1Oc1cc(N2CCC3(CC2)CC(N2CCC[C@H]2c2ccccc2C(C)C)C3)ccc1C(=O)NS(=O)(=O)c1cc2c(c([N+](=O)[O-])c1)N[C@@H]([C@H]1CC[C@](C)(O)CC1)CO2` (single isomer, unassigned) [Example D-17, N-(((S)-3-((1r,4S)-4-hydroxy-4-methylcyclohexyl)-5-nitro-3,4-dihydro-2H-benzo[b][1,4]oxazin-7-yl)sulfonyl)-4-(2-((R or S)-2-(2-isopropylphenyl)pyrrolidin-1-yl)-7-azaspiro[3.5]nonan-7-yl)-2-((6-(2-methoxyethoxy)-1H-pyrrolo[2,3-b]pyridin-5-yl)oxy) benzamide], the IC50 turned out to be 1 nM with RS4;11-BCL-2 G101V cells (Homo sapiens, RS4-11, 168 h); 1 nM in the assay on Toledo cells (Homo sapiens); 22 nM in the assay with RS4;11-BCL-2 F104L cells (Homo sapiens).

Take `CCOc1nc2[nH]cc(F)c2cc1Oc1cc(N2CCC3(CC2)CN([C@H]2CCC[C@H]2c2ccccc2C(C)C)C3)ccc1C(=O)NS(=O)(=O)c1cnc(NC[C@H]2CC[C@](C)(O)CC2)c([N+](=O)[O-])c1` (relative stereo) [Example A-153, 2-((6-ethoxy-3-fluoro-1H-pyrrolo[2,3-b]pyridin-5-yl)oxy)-N-((6-(((1r,4r)-4-hydroxy-4-methylcyclohexyl)methyl)amino)-5-nitropyridin-3-yl) sulfonyl)-4-(2-((1S,2S or 1R,2R)-2-(2-isopropylphenyl)cyclo-pentyl)-2,7-diazaspiro[3.5]nonan-7-yl) benzamide]: the IC50 in the assay on RS4;11-BCL-2 G101V cells (Homo sapiens, RS4-11, 168 h) stood at 25 nM; in the assay with Toledo cells (Homo sapiens), 1 nM; in the assay on RS4;11-BCL-2 F104L cells (Homo sapiens) it was 6 nM.

Turning to `CCOc1nc2[nH]cc(F)c2cc1Oc1cc(N2CCC3(CC2)CN([C@H]2CCC[C@H]2c2ccccc2C(C)C)C3)ccc1C(=O)NS(=O)(=O)c1cc2c(c([N+](=O)[O-])c1)N[C@@H]([C@H]1CC[C@](C)(O)CC1)CO2` (single isomer, unassigned) [Example D-103, 2-((6-ethoxy-3-fluoro-1H-pyrrolo [2,3-b]pyridin-5-yl)oxy)-N-(((S)-3-((1r,4S)-4-hydroxy-4-methylcyclohexyl)-5-nitro-3,4-dihydro-2H-benzo[b][1,4]oxazin-7-yl)sulfonyl)-4-(2-((1S,2S or 1R,2R)-2-(2-isopropylphenyl)cyclopentyl)-2,7-diazaspiro[3.5]nonan-7-yl)benzamide], the IC50 is 1 nM in the assay on RS4;11-BCL-2 G101V cells (Homo sapiens, RS4-11, 168 h); 1 nM in the assay with Toledo cells (Homo sapiens); 1 nM with RS4;11-BCL-2 F104L cells (Homo sapiens).

With `CC(C)c1ccccc1[C@@H]1CCC[C@@H]1N1CC2(CCN(c3ccc(C(=O)NS(=O)(=O)c4cnc(NC[C@H]5CC[C@](C)(O)CC5)c([N+](=O)[O-])c4)c(Oc4cnc5[nH]cc(F)c5c4)c3)CC2)C1` (single isomer, unassigned) [Example A-149, 2-((3-fluoro-1H-pyrrolo[2,3-b]pyridin-5-yl)oxy)-N-((6-((((1r,4r)-4-hydroxy-4-methylcyclohexyl)methyl)amino)-5-nitropyridin-3-yl)sulfonyl)-4-(2-((1S,2S or 1R,2R)-2-(2-isopropylphenyl)cyclo-petyl)-2,7-diazaspiro[3.5]nonan-7-yl) benzamide], the IC50 in the assay with RS4;11-BCL-2 G101V cells (Homo sapiens, RS4-11, 168 h) worked out at 1 nM; in the assay with Toledo cells (Homo sapiens), 1 nM; in the assay with RS4;11-BCL-2 F104L cells (Homo sapiens) it was 1 nM.

Turning to `CC(C)c1ccccc1[C@@H]1CCCN1C1CC2(CCN(c3ccc(C(=O)NS(=O)(=O)c4cc5c(c([N+](=O)[O-])c4)N[C@@H]([C@H]4CC[C@](C)(O)CC4)CO5)c(Oc4cc5cc[nH]c5nc4OC[C@H]4COCCN4C)c3)CC2)C1` (single isomer, unassigned) [Example D-134, N-(((S)-3-((1r,4S)-4-hydroxy-4-methylcyclohexyl)-5-nitro-3,4-dihydro-2H-benzo[b][1,4]oxazin-7-yl)sulfonyl)-4-(2-((R or S)-2-(2-isopropylphenyl)pyrrolidin-1-yl)-7-azaspiro[3.5]nonan-7-yl)-2-((6-(((7)-4-methylmorpholin-3-yl)methoxy)-1H-pyrrolo[2,3-b]pyridin-5-yl)oxy)benzamide], the IC50 in the assay on RS4;11-BCL-2 G101V cells (Homo sapiens, RS4-11, 168 h) turned out to be 1 nM; in the assay on Toledo cells (Homo sapiens), 1 nM; with RS4;11-BCL-2 F104L cells (Homo sapiens) it was 1 nM.

As for `CC(C)c1ccccc1[C@@H]1CCCN1C1CC2(CCN(c3ccc(C(=O)NS(=O)(=O)c4cc5c(c([N+](=O)[O-])c4)N[C@@H]([C@H]4CC[C@](C)(O)CC4)CO5)c(Oc4cnc5[nH]cc(F)c5c4)c3)CC2)C1` (single isomer, unassigned) [Example D-7, 2-((3-fluoro-1H-pyrrolo[2,3-b]pyridin-5-yl)oxy)-N-(((S)-3-((1r,4S)-4-hydroxy-4-methylcyclohexyl)-5-nitro-3,4-dihydro-2H-benzo[b] [1,4]oxazin-7-yl)sulfonyl)-4-(2-((R or S)-2-(2-isopropylphenyl)pyrrolidin-1-yl)-7-azaspiro[3.5]nonan-7-yl)benzamide], the IC50 in the assay with RS4;11-BCL-2 G101V cells (Homo sapiens, RS4-11, 168 h) was 1 nM; in the assay on Toledo cells (Homo sapiens) it was 1 nM; with RS4;11-BCL-2 F104L cells (Homo sapiens) it was 14 nM.

For `CC(C)c1ccccc1[C@@H]1CCCN1C1CC2(CCN(c3ccc(C(=O)NS(=O)(=O)c4cc5c(c([N+](=O)[O-])c4)N[C@@H]([C@H]4CC[C@](C)(O)CC4)CO5)c(Oc4cc5cc[nH]c5nc4Cl)c3)CC2)C1` (single isomer, unassigned) [Example D-18, 2-((6-chloro-1H-pyrrolo[2,3-b]pyridin-5-yl)oxy)-N-(((S)-3-((1r,4S)-4-hydroxy-4-methylcyclohexyl)-5-nitro-3,4-dihydro-2H-benzo[b] [1,4]oxazin-7-yl)sulfonyl)-4-(2-((R or S)-2-(2-isopropylphenyl)pyrrolidin-1-yl)-7-azaspiro[3.5]nonan-7-yl)benzamide], the IC50 with RS4;11-BCL-2 G101V cells (Homo sapiens, RS4-11, 168 h) is 14 nM; in the assay on Toledo cells (Homo sapiens), 1 nM; in the assay on RS4;11-BCL-2 F104L cells (Homo sapiens), 33 nM.
